Laboratory results from US6265423A, “Aromatic polycyclic retinoid-type derivatives, method for preparing same, and use thereof for making pharmaceutical and cosmetic compositions” (priority 1996, dated 2001).

Key:
[1] = system: ZR-75-1 human mammary cancer cells; test: MTT test, proliferation of ZR-75-1; type: cell-based; settings: for activity at 100 µM / activity at 1 µM / activity at 0.01 µM: Homo sapiens, 72 h, control = 100%, read-out: level of proliferation; for activity at 100 µM: ZR-75-1, 10^-4 M; for activity at 1 µM: ZR-75-1, 10^-6 M; for activity at 0.01 µM: ZR-75-1, 10^-8 M; for effect on cellular increase, ZR-75-1 (in words): MTT test
Procedure: (§1) The cells that were cultured came from the ATCC (American Type Culture Collection).
(§2) The cellular lines are kept in culture in a monolayer at 37° C. in closed culture dishes (Nunc. Gibco BRL, Life Technologies, Belgium) containing the minimum essential medium (MEM, Gibco) supplemented with 5% of Foetal Calf Serum, (FCS, Gibco), 0.6 mg/ml of glutamine (Gibco) and a mixture of 200 IU/mi of penicillin (Gibco), 200 μg/ml of streptomycin (Gibco) and 0.1 mg/ml of gentamycin (Gibco). The foetal calf serum is decomplemented for 1 hour at 56° C.
(§3) This test is based on the mitochondrial reduction by living metabolically active cells of the MTT (3-(4,5-dimethylthiazol-2-yl)-2,5-diphenyltetrazolium bromide) of yellowish colour into a blue coloured product, formazan. The quantity of formazan obtained is directly proportional to the number of living cells. After incubation of the cells for 24 hours in microplates with 96 flat bottomed wells, the culture medium is replaced by 100 μl of fresh culture medium containing the drug to be tested.
(§4) The microplates are then incubated for 3 hours at 37° C. and centrifuged for 10 minutes at 400 g (GPR centrifuge, Beckman). The MTT solution is replaced by 100 μl of dimethylsulphoxide (Merck). The microplates are agitated (Vari-Shaker, Dynatech) for 10 minutes.
(§5) In the microplates, the control cells like the treated cells were incubated in a medium without the compounds to be tested for 24 hours. The control cells are incubated in a medium without a drug throughout the whole experiment, while the treated cells are incubated in different media. These media contain the molecule to be tested at various concentrations: 10^-8 M, 10^-6 M and 10^-4 M. All the tests are carried out in 6 duplicates.
(§6) The statistical comparisons are carried out according to the Fisher Test:
(§7) The mean optical density measured for each experimental condition is expressed as a percentage in relation to the laid down control condition being equal to 100%.

[2] = system: T-47D human mammary cancer cells; test: MTT test, proliferation of T-47D; type: cell-based; settings: for activity at 100 µM / activity at 1 µM / activity at 0.01 µM: Homo sapiens, T47D, T-47D, 72 h, control = 100%, read-out: level of proliferation; for activity at 100 µM: 10^-4 M; for activity at 1 µM: 10^-6 M; for activity at 0.01 µM: 10^-8 M; for effect on cellular increase, T-47D (in words): MTT test
Procedure: as §1, §2, §3, §4, §5, §6, §7

[3] = system: A549 human pulmonary cancer cells; test: MTT test, proliferation of A549; type: cell-based; settings: Homo sapiens, 72 h, control = 100%, read-out: level of proliferation; for activity at 100 µM: A549, 10^-4 M; for activity at 1 µM: A549, 10^-6 M; for activity at 0.01 µM: A549, 10^-8 M
[4] = system: A-427 human pulmonary cancer cells; test: MTT test, proliferation of A-427; settings: for activity at 0.01 µM / activity at 1 µM / activity at 100 µM: Homo sapiens, A-427, 72 h, read-out: level of proliferation; for effect on cellular increase, A-427 (in words): MTT test

Row | SMILES | activity at 100 µM [1] | activity at 1 µM [1] | activity at 0.01 µM [1] | activity at 100 µM [2] | activity at 1 µM [2] | activity at 0.01 µM [2] | activity at 100 µM [3] | activity at 1 µM [3] | activity at 0.01 µM [3] | activity at 0.01 µM [4] | activity at 1 µM [4] | activity at 100 µM [4] | effect on cellular increase, A-427 (in words) [4] | effect on cellular increase, ZR-75-1 (in words) [1] | effect on cellular increase, T-47D (in words) [2]
1 | C/C(=C\c1cc2c(cc1C)C(C)(C)CCC2(C)C)c1ccc(-c2nnn[nH]2)cc1 [CB40747, (E) 5-[4-[1-(5,6,7,8-tetrahydro-3,5,5,8,8-pentamethyl-2-naphthalenyl)-2-propenyl]phenyl]-1H-tetrazole] | 0% | 107% | 111% | 0% | 85.2% | 106% | 0% | 192% | 176% | 100% | 83.7% | 1.7% | a stimulation of the cellular increase | – | –
2 | C/C(=C/c1ccc2c(c1)C(C)(C)CCS2)c1ccc(C(=O)O)cc1 [CB41666] | 48.5% | 115% | 112% | 28% | 69.5% | 88.7% | 63.2% | 89.9% | 94.5% | 83% | 91.2% | 7.6% | – | – | –
3 | C/C(=C/c1ccc2c(c1)C(C)(C)CCS2(=O)=O)c1ccc(-c2nnn[nH]2)cc1 [CB39122, (Z) 5-[4-[1-(3',4'-dihydro-4',4'-dimethyl-1',1'-dioxide-2'H-1'-benzothiopyran-6'-yl)-2-propenyl]phenyl]-1H-tetrazole] | 74.2% | 97.3% | 102% | 57.1% | 100% | 102% | 84.8% | 98% | 96.2% | 93.9% | 96.5% | 27.1% | – | – | –
4 | C/C(=C\c1ccc2c(c1)C(C)(C)CCS2(=O)=O)c1ccc(C(=O)O)cc1 [CB39356] | 59.6% | 148% | 133% | 36.4% | 108% | 86% | 72% | 105% | 105% | 124% | 129% | 70.7% | a stimulation of the cellular increase | do not influence the cellular increase of the lineages under consideration | do not influence the cellular increase of the lineages under consideration
5 | C/C(=C/c1cc2c(cc1C)C(C)(C)CCC2(C)C)c1ccc(C(=O)O)cc1 [CB32706] | 0.7% | 93.1% | 95% | 0% | 88.6% | 94% | 6% | 103% | 101% | 103% | 99.6% | 0.8% | – | – | –
6 | C/C(=C\c1ccc2c(c1)C(C)(C)CCS2)c1ccc(C(=O)O)cc1 [CB12994] | 31.8% | 126% | 121% | 1.8% | 51.8% | 67.6% | 53.2% | 89% | 92.1% | 107% | 93.6% | 4.4% | – | – | –
7 | Cc1cc2c(cc1/C=C(\c1ccc(C(=O)O)cc1)C(F)(F)F)C(C)(C)CCC2(C)C [CB62899, (E) 4-[1-trifluoromethyl-2-(5,6,7,8-tetrahydro-3,5,5,8,8-pentamethyl-2-naphthalenyl)-1-ethenyl]benzoic acid] | 0.4% | 112% | 112% | 1.7% | 73.7% | 128% | 0.45% | 119% | 131% | 115% | 124% | 0% | – | – | –
8 | C=C(c1ccc(C(=O)Nc2ccc(O)cc2)cc1)c1cc2c(cc1C)C(C)(C)CCC2(C)C [CB65801] | 0.2% | 93.4% | 138% | 1.6% | 62.7% | 92.8% | – | – | – | – | – | – | – | – | –
9 | CCCCCCCOc1cc2c(cc1/C(C)=C/c1ccc(C(=O)O)cc1)C(C)(C)CCS2(=O)=O [CB65757] | 1% | 118% | 116% | 0% | 126% | 124% | 0% | 111% | 108% | 106% | 146% | 0% | – | – | –
10 | C/C(=C\c1ccc2c(c1)C(C)(C)CCS2(=O)=O)c1ccc(-c2nnn[nH]2)cc1 [CB15068, (E) 5-[4-[1-(3',4'-dihydro-4'4'-dimethyl-1',1'-dioxide-2'H-1'-benzothiopyran-6'-yl)-2-propenyl]phenyl]-1H-tetrazole] | 59.3% | 99.9% | 99.2% | 32.2% | 87.8% | 101% | 81.8% | 97.3% | 92.7% | 88.5% | 98% | 24.3% | – | do not influence the cellular increase of the lineages under consideration | do not influence the cellular increase of the lineages under consideration
11 | Cc1cc2c(cc1/C=C(\c1ccc(-c3nnn[nH]3)cc1)C(F)(F)F)C(C)(C)CCC2(C)C [CB63237, (E) 5-[4-[1-trifluoromethyl-2-(5,6,7,8-tetrahydro-3,5,5,8,8-pentamethyl-2-naphthalenyl)-1-ethenyl]phenyl]-1H-tetrazole] | 0% | 106% | 86.5% | 4.1% | 125% | 120% | 2.1% | 140% | 124% | 88.1% | 148% | 4.1% | – | – | –
12 | COc1cc2c(cc1/C(C)=C/c1ccc(C(=O)O)cc1)C(C)(C)CCS2(=O)=O [CB77787] | 93.5% | 113% | 114% | 86.3% | 120% | 129% | 103% | 125% | 118% | 120% | 110% | 163% | – | – | –
13 | Cc1cc2c(cc1C(=O)c1ccc(C(=O)Nc3ccc(O)cc3)cc1)C(C)(C)CCC2(C)C [CB81616] | 0% | 134% | 136% | 1.4% | 96.7% | 103% | – | – | – | – | – | – | – | – | –
